Data taken from patent US20190358220A1, “INTEGRATOR INHIBITORS AND METHODS FOR THEIR USE” (UNIVERSITY OF MIAMI, priority 2017, published 2019).

Experiments:
[1] = test system: Integrator and RNAPII recruitment to EGF-responsive IEGs; assay: ChIP-seq of INTS11 and RNAPII recruitment after EGF stimulation; assay type: cell-based, human
Protocol: Diagrams of EGR1, FOSB and NR4A1 genomic regions are indicated at the bottom. FIGS. 5B and 5C show the average profiles of INTS11 (top) and RNAPII (bottom) recruitment at 106 EGF-induced genes (FIG. 5B) and 106 control genes (FIG. 5C). ChIP-seq was performed before and after 20 minutes of EGF-induction, with or without the presence of ERK inhibitor. The average analysis was performed using two independent biological replicates.
ChIP-seq for INTS11 and RNAPII was performed before and after treatment of cells with ERK1/2 inhibitor (SCH772984). […] This was manifested by decreased occupancy of Integrator and RNAPII at the 5′-end and body of EGF-responsive genes (FIGS. 5A-5C). […]
ChIP-seq data analysis was performed as previously described. […] In brief, FASTQ data were processed with Trimmomatic to remove low-quality reads and then aligned to the human genome hg19 using bowtie2. […] In brief, RNAPII ChIP-seq density at the TSS (−30 bp to +300 bp) was divided by the read density over the rest of the gene body, plus an additional 1 kb beyond the transcription end site (TES). The log10(ratio) of genes (EGF, control and ERK inhibitor treatment) were calculated using all different isoforms available in the Hg19 RefSeq Annotation Table that were considered express (FPKM >1 in EGF treatment conditions) in our analysis.

[2] = test system: ovarian cancer cell lines (A2780, OVCAR10, PEO1, PEO4); assay: Viability assay (PrestoBlue), ovarian cancer cells; assay type: cell-based
Protocol: Cell viability was determined by Prestoblue and presented as percent of vehicle. Three independent biological replicates were used to calculate the average. Two-sided t-test, **P<0.01 for corresponding comparisons.
Therefore, ovarian cancer cells were used to assess the effectiveness of targeting Integrator in cancers without activating mutations in the MAPK pathway. Phendione was compared with the conventional chemotherapeutic drug, cisplatin, a DNA crosslinking agent, which is frequently used in the treatment of the ovarian cancer. The effectiveness of INTS11 depletion in reducing the proliferation of PEO4 ovarian cancer cells was first measured (FIGS. 11, 12A, and 12B). Next, four ovarian cancer cell lines were treated with phendione or cisplatin.
The cells were plated 5000 per well in 96-well black plates with a clear bottom and maintained under normal conditions over night before the drug treatment. The cell viability was measured 4 days after treatment using PrestoBlue (Invitrogen cat No A13261). GraphPad Prism software was used to generate dose response curves and calculate IC50 values. Each experiment was repeated at least three times.

| Compound | recruitment of Integrator and RNAPII to EGF-responsive IEGs ([1]; before and after 20 minutes of EGF induction) | transcriptional elongation (RNAPII traveling ratio) ([1]; following EGF induction) | responsiveness of cisplatin-resistant ovarian cancer cells ([2]; A2780 and OVCAR10, known resistance to cisplatin) | sensitivity of cellular viability ([2]; all four ovarian cancer lines, 96 hours treatment) |
| --- | --- | --- | --- | --- |
| O=C(Nc1ccc2[nH]nc(-c3ccncc3)c2c1)[C@@H]1CCN(CC(=O)N2CCN(c3ccc(-c4ncccn4)cc3)CC2)C1 [SCH772984] | diminished the immediate-early recruitment of Integrator and RNAPII | substantially decreased transcriptional elongation | – | – |
| O=C1C(=O)c2cccnc2-c2ncccc21 [phendione, 1,10-phenanthroline-5,6-dione] | – | – | sensitive to phendione | exquisite sensitivity |
